Measured values published in patent US20020009441A1, “Reactively modified therapeutic compounds having an extended lifetime in vivo” (priority 1993, published 2002).
Values belong to the molecule of their own block, whether it stands above or below them.

Tests used:
[1] = blood component in blood; cited from earlier work
anti-avidin titer = experiment: Anti-avidin antibody titer by ELISA after i.v. avidin; type: in vivo, rabbit
Description: II. […] Within about 2 days the titer began to rise rapidly and by 10 days a high anti-avidin titer was observed by ELISA, using avidin coated to microiplates, as evidenced by an OD value of about 600.

red blood cells = conditions: rabbit, in vivo
Protocol: I. Two rabbits were injected with a solution of N-succinimidyl biotin ester (NHS-biotin)(5 or 50 mg in 200 μl or 1 ml of DMSO) i.v. on day 0.

plasma proteins = conditions: rabbit, in vivo

Molecule: transferrin: blood protein, mobile blood component
Half-life [1]: 240 h

Molecule: avidin: egg white avidin, heterologous protein and reciprocal binding member of biotin
time at which anti-avidin titer began to rise rapidly (anti-avidin titer; 250 μg or 1 mg egg white avidin i.v. after biotin conjugate administration): ≤ 2 days
anti-avidin titer, OD value (ELISA) (anti-avidin titer; by 10 days, 250 μg or 1 mg egg white avidin i.v. after biotin conjugate administration): about 600
anti-avidin antibody production (anti-avidin titer; rabbits not previously given biotin conjugate, before i.v. booster of 50 μg avidin on day 6): substantially no production of antibodies

biotinylated red blood cell protein bands at 33 days (red blood cells): no bands could be observed
duration for which biotinylated red blood cell proteins could be observed (red blood cells): 12 days
duration for which IgG bands could be observed (plasma proteins): 9 days
duration of detection of biotin bound to IgM and IgG (plasma proteins): up to 33 days
Molecule: O=C1N[C@H]2[C@H](CS[C@H]2CCCCC(=O)ON2C(=O)CCC2=O)N1 [NHS-biotin, N-succinimidyl biotin ester]
